According to patent US20240418735A1, “Methods and Kits for Determining Insulin Resistance Treatment” (Scimar Ltd., priority 2021, published 2024):

Experiments:
hepatalin secretion = details: one dose given before a test meal; rats on sucrose supplemented diet, 9 weeks; cited from earlier work
[1] = system: MIS (Meal-induced Insulin Sensitization); assay: RIST index / % MIS before and 90 minutes after a mixed liquid meal in sucrose-supplemented rats; assay type: in vivo; details: for restoration of MIS on increasing the dose: increased doses of either NAC or BE, sucrose-supplemented rats
Source text: While the present invention is not limited to a particular model or mechanism of action, it appears the response to feeding results in the release of acetylcholine which activates muscarinic receptors in the liver. This activation leads to increased production of nitric oxide which stimulates guanyl cyclase activity, resulting in increased levels of cyclic guanosine monophosphate which acts in stimulating the release of hepatalin from the liver. Meal-induced insulin […] (MIS) results from insulin-induced secretion of hepatalin which can only occur if the liver receives two permissive feeding signals. Absence of either signal blocks the ability of insulin to trigger hepatalin secretion. The combination of bethanechol and N-acetylcystelne (BENAC) mimics the 2 signals.
FIG. 1 is a chart showing BENAC synergistic treatment of AMIS. The % MIS (hepatalin/insulin action×100%) calculated from the RIST index in 24 hour fasted anaesthetized rats determined before and 90 minutes after intragastric injection of a mixed liquid meal in a normal control group and in four groups that had been treated with nine weeks of sucrose supplementation.

GSH = GSH levels in sucrose-supplemented rats; assay type: in vivo; details: nine weeks of sucrose supplementation

SMILES | ability of insulin to stimulate hepatalin secretion (hepatalin secretion) | restoration of MIS (% MIS calculated from the RIST index) ([1]; 24 hour fasted anaesthetized rats, nine weeks of sucrose supplementation, before and 90 minutes after intragastric mixed liquid meal) | restoration of MIS on increasing the dose [1] | GSH levels (GSH) | effect on the RIST index ([1]; 24 hour fasted anaesthetized rats, nine weeks of sucrose supplementation)
CC(C[N+](C)(C)C)OC(N)=O (stereo not shown) [Bethanechol] | ineffective | modest restoration of MIS | restored MIS to levels seen after feeding but not above |  | 
CC(=O)N[C@@H](CS)C(=O)O [N-acetyl cysteine] | ineffective |  | restored MIS to levels seen after feeding but not above | elevated GSH levels to that seen after feeding | no effect
